Marks after values point to notes of the source that are not given here.
Legend:
[1] = system: cancer cell lines (MCF-7, HeLa, 518A2, HCT116, RD) vs noncancerous MRC-5pd30; experiment: MTT panel: average IC50 of cancer cell lines and selectivity index; assay type: cell-based, human; settings: for SI (selectivity index): IC50 for noncancerous MRC-5pd30 vs the average IC50 value of cancer cell lines; for IC50: average of IC50 values related to cancer cell lines
Procedure: (§1) In vitro antiproliferative activity of Ru complexes was determined by the MTT or, alternatively, SRB assay as already described,[84] after 72 h of incubation of cells with various concentrations of the Ru complex. The reported IC50 values are an average of three independent experiments, each consisting of three replicates per concentration.

[2] = system: HCT116 cells; experiment: Cellular uptake of Ru (ICP-MS); assay type: cell-based, human; settings: HCT116, 15 μM, 24 h; mean ± SEM
Procedure: In these experiments, 1 × 10^6 HCT116 cells were seeded on 100 mm Petri dishes. After overnight preincubation in a drug-free medium, the cells were treated with the Ru complexes (15 μM) for 24 h. Afterward, the cells were extensively washed with PBS (37 °C), detached using 0.25% trypsin, washed twice with ice-cold PBS, and counted by an automatic cell counter. The cell pellets were digested using a microwave acid (HCl) digestion system (CEM Mars). The quantity of Ru taken up by the cells was determined by inductively coupled plasma mass spectrometry (ICP-MS). All experiments were carried out in triplicate.

[3] = system: MCF-7; experiment: MTT antiproliferative assay; assay type: cell-based, human; settings: 72 h, mean ± SD
Procedure: (§2) All of the cell lines were cultivated in DMEM medium (high glucose 4.5 g L^–1, PAA, Pasching, Austria) supplemented with gentamycin (50 μg mL^–1, Serva, Heidelberg, Germany) and 10% heat-inactivated fetal bovine serum (PAA). The medium for MRC5pd30 cells was further supplemented by 1% nonessential amino acids (Sigma-Aldrich, Prague, Czech Republic). All cells were cultured as adherent monolayers in a humidified incubator at 37 °C in a 5% CO2 atmosphere and subcultured twice a week with an appropriate plating density.
as §1

[4] = system: HCT116; experiment: MTT antiproliferative assay; assay type: cell-based, human; settings: 72 h, mean ± SD
Procedure: as §2, §1

[5] = system: HeLa; experiment: MTT antiproliferative assay; assay type: cell-based, human; settings: 72 h, mean ± SD
Procedure: as §2, §1

[6] = system: 518A2; experiment: MTT antiproliferative assay; assay type: cell-based, human; settings: 72 h, mean ± SD
Procedure: as §2, §1

[7] = system: mitochondrial membrane potential of HCT116 cells; experiment: Mitochondrial membrane potential, TMRE assay; assay type: cell-based, human; settings: 5 h; 10 μM and 2x or 4x IC50,72h
Procedure: Effects of Ru complexes on mitochondrial membrane potential were assessed by TMRE staining of HCT116 cells after treatment. First, HCT116 cells were seeded on a six-well plate at a 1.5 × 10^5 cells/well density. The next day, the cells were treated with equimolar (10 μM) and equitoxic (twofold or fourfold IC50,72h) concentrations of Ru complexes for 5 h. Then, the cells were collected and stained with 100 nM TMRE in a complete DMEM medium for 30 min at 37 °C in the dark. The TMRE-containing medium was then replaced with PBS, and cells were analyzed by a BD FACSverse flow cytometer (λex = 488 nm, λem = 586 nm).

[8] = system: MRC5pd30; experiment: MTT assay on noncancerous cells; assay type: cell-based, human; settings: 72 h, mean ± SD
Procedure: as §2, §1

[9] = system: RD; experiment: MTT antiproliferative assay; assay type: cell-based, human; settings: 72 h, mean ± SD
Procedure: as §2, with “density. In vitro antiproliferative activity of Ru complexes was determined by the MTT or, alternatively, SRB assay as already described,[84] after 72 h of incubation of cells with various concentrations of the Ru complex. The reported IC50 values are an average of three independent experiments, each consisting of three replicates per concentration.” for “density.”

[10] = system: mitochondria of HCT116 cells; experiment: Ru content in isolated mitochondria (ICP-MS); assay type: cell-based, human; settings: HCT116, 10 μM, 24 h
Procedure: The HCT116 cells were seeded at a density of 3 × 10^6 cells/10 mL Petri dish and incubated overnight. The cells were treated with Ru complexes (10 μM) for 24 h, harvested, and washed with ice-cold PBS, and mitochondrial fractions were extracted by the Mitochondrial Isolation Kit (MITOISO2, Sigma-Aldrich) according to the manufacturer’s instructions. The Ru content in each sample was evaluated by ICP-MS. The measurement was performed in triplicate.

[11] = Solubility in water (D2O) by 1H NMR; assay type: physicochemical; settings: for solubility: D2O, 21°C, sum of chloro and aquo complex after 2 h, 1H NMR, Me2SO2 standard
Procedure: A suspension of the selected ruthenium complex (3–5 mg) in a D2O solution (0.7 mL) containing Me2SO2 as the internal standard[115] (3.36 × 10^–3 M) was vigorously stirred at 21 °C for 2 h. The resulting saturated solution was filtered over celite, transferred into an NMR tube, and analyzed by ^1H NMR and ^31P NMR spectroscopy (delay time = 3 s; number of scans = 20). The concentration (solubility) was calculated by the relative integral (starting complex + aquo complex, C^βH signal in the ^1H spectrum) with respect to Me2SO2 (δ/ppm = 3.14). NMR data are given in the Supporting Information (Figures S36–S47).

[12] = Stability and chloride/water exchange in D2O (NMR); assay type: physicochemical; settings: for Aquo species % in D2O after 48h: 48 h at 37 °C; for residual complex % in D2O: sum of chloro and aquo complexes; for Aquo species % in D2O at t0: t0 = after 2 h stirring in D2O
Procedure: The same samples prepared at point (a) were used in this experiment, apart from complex 1 that was dissolved in DMSO-d6/D2O 4:1 v/v solution (0.7 mL; [Ru] = approx. […]) containing Me2SO2 as the standard.[115] After ^1H and ^31P{^1H} NMR analyses described above at point (a) (time = t0), samples were heated at 37 °C for 48 h. After cooling to room temperature, ^1H and ^31P NMR spectra were recorded. The percentage of starting complex + related aquo complex was calculated by the relative integral (C^βH signal in the ^1H spectrum) with respect to Me2SO2 (c = 3.3 × 10^–3 mol·L^–1; δ/ppm = 3.14 in D2O; δ/ppm = 2.95 in DMSO-d6/D2O 4:1 v/v), see Table 2 and S1.

Substance	Accumulation of ruthenium, ng Ru/10^6 cells [2]	IC50 [3]	IC50 [4]	IC50 [5]	Ru in isolated mitochondria [10]	solubility in water [11]	residual complex % in DMSO-d6/D2O ([12]; DMSO-d6/D2O (4:1 v/v) mixture, after 48 h at 37 °C)	solubility [11]	Aquo species % in D2O after 48h [12]	residual complex % in D2O ([12]; after 48 h at 37 °C)	Aquo species % in D2O at t0 [12]	SI (selectivity index) [1]	IC50 [1]	IC50 [6]	decrease of TMRE fluorescence (mitochondrial depolarization) [7]	IC50 [8]	IC50 [9]
[RuCl(κ^3-tpm)(PPh3)(CNCy)]Cl [compound 8]	59.4 ± 0.6 ng Ru/10^6 cells	10 ± 2 µM	8 ± 2 µM	15 ± 1 µM	70 ± 15 pg Ru/10^6 cells	–	–	1.1 10^–3 mol·L^–1	90%	92%	33%	2.0	9.9 ± 1.5 µM	10 ± 2 µM	more pronounced	19.7 ± 0.4 µM	6.6 ± 0.7 µM
[RuCl(κ^3-tpm)(PPh3){CNCH2P(O)(OEt2)2}]Cl [compound 9]	16.2 ± 1.4 ng Ru/10^6 cells	43 ± 7 µM	35 ± 6 µM	36 ± 2 µM	–	–	–	4.6 10^–3 mol·L^–1	73%	93%	0%	1.5	35.2 ± 5 µM	38 ± 7 µM	–	50.8 ± 0.4 µM	24 ± 3 µM

Further substances by falling IC50 [3], results first:

Accumulation of ruthenium, ng Ru/10^6 cells [2]	IC50 [3]	IC50 [4]	IC50 [5]	Ru in isolated mitochondria [10]	solubility in water [11]	residual complex % in DMSO-d6/D2O ([12]; DMSO-d6/D2O (4:1 v/v) mixture, after 48 h at 37 °C)	solubility [11]	Aquo species % in D2O after 48h [12]	residual complex % in D2O ([12]; after 48 h at 37 °C)	Aquo species % in D2O at t0 [12]	Substance	SI (selectivity index) [1]	IC50 [1]	IC50 [6]	decrease of TMRE fluorescence (mitochondrial depolarization) [7]	IC50 [8]	IC50 [9]
66.1 ± 8.0 ng Ru/10^6 cells	38 ± 8 µM	25 ± 1 µM	91 ± 3 µM	–	–	–	3.4 10^–3 mol·L^–1	93%	100%	75%	[RuCl(κ^3-tpm)(PPh3){NCHN(Me)(CH)2}]Cl [compound 3]	2.0	42.8 ± 4.2 µM	33 ± 5 µM	–	83.6 ± 0.5 µM	27 ± 4 µM
63.3 ± 6.0 ng Ru/10^6 cells	6 ± 1 µM	6.7 ± 0.4 µM	10 ± 2 µM	127 ± 24 pg Ru/10^6 cells	–	–	3.1 10^–3 mol·L^–1	83%	100%	57%	[RuCl(κ^3-tpm)(PPh3){P(OMe)3}]Cl [compound 7]	3.4	7.1 ± 1 µM	6.8 ± 0.8 µM	less potent in reducing mitochondrial membrane potential	24 ± 1 µM	6 ± 1 µM
145.1 ± 5.9 ng Ru/10^6 cells	2.4 ± 0.6 µM	1.5 ± 0.1 µM	4 ± 0.4 µM	467 ± 66 pg Ru/10^6 cells	insoluble in water	69 ^c %	–	–	–	–	[RuCl(κ^3-tpm)(PPh3)2]Cl [compound 1]	2.3	2.5 ± 0.3 µM	2.6 ± 0.4 µM	more pronounced	5.8 ± 0.7 µM	2.2 ± 0.2 µM
